Measurements as given in patent US20250127896A1, “CHIMERIC TIM4 RECEPTORS AND USES THEREOF” (CERO THERAPEUTICS HOLDINGS, INC., priority 2021, published 2025).

Key:
NSCLC H1975 cells [1] = test: T cell expansion in H1975 co-culture with osimertinib (quantitative flow cytometry); type: cell-based
Procedure: FIG. 41: Bar graphs showing fold expansion of total CD3+ T cells (untransduced+vehicle, untransduced+osimertinib, CER1236+vehicle, CER1236+osimertinib) determined by quantitative flow cytometry using quantitation beads over a time course (48 hrs, 96 hrs, 120 hrs, and 144 hrs).
FIG. 42: Flow cytometry plots measuring CD3+ cells (y-axis) and H1975 cell (x-axis) in co-culture experiments with H1975 cells pretreated with vehicle or osimertinib ([…], 19.53 nM) and untransduced T cells (top row) or CER1236 T cells (bottom row).
Proliferation of CER1236 T cells co-cultured with H1975 NSCLC cells pre-treated with osimertinib or vehicle was also measured. […] Total CD3+ T cells fold expansion was determined by quantitative flow cytometry using quantitation beads over a time course (48 hrs, 96 hrs, 120 hrs, and 144 hrs). Experiment was performed twice, once with 5,000 target H1975 cells and once with 10,000 target H1975 cells.

E7 TCR T cells = test: APC-like function: E7 peptide-pulsed CER T cells co-cultured with E7 TCR T cells (activation markers, CT Violet proliferation); type: cell-based
Procedure: FIG. 1A: a schematic of pCTX247 (also referred to herein as CER247) and pCTX1107 (also referred to herein as CER1107 or CER1236) chimeric Tim4 receptors and pCTX1107 T cells pulsed with E7 peptides and co-cultured with E7-specific T cells to evaluate their antigen presentation capacity. FIG. 1B: E7-specific proliferation responses were measured by CT Violet dye dilution after 6 days in the presence of autologous CER-T (TLR containing or non-containing CERs) pulsed with E7 peptides. […] All data collected by FACS. Cell tracing show E7 TCR-T cells using an anti-mouse TCRb. E7 TCR-T cells were labeled with CT Violet at the time of co-culture. FIG. 1D: Percentage of proliferated E7 TCR cells in culture among live CD3+ cells determined by flow cytometry based on staining of cell trace violet low E7 TCRb+ cells.
FIG. 2: T cells containing chimeric Tim4 receptors with a TLR intracellular signaling domain added to the CD3ζ signaling domain (and optionally a CD28 signaling domain) are strong stimulators of autologous E7-specific T cell responses. CER-T cells were pulsed with E7 peptide and tested for their capacity to trigger an autologous E7-specific T cell response. CD25, a T cell activation marker, was evaluated on E7 TCR-T cells, 24 hours after CER-T cells were pulsed with E7 peptides. […]

NSCLC H1975 cells [2] = test: H1975 NSCLC cell growth with CER1236 T cells and osimertinib (Incucyte); type: cell-based; conditions: 100 nM osimertinib 24 h, then 4.88 nM, E:T 0.25:1, 120 h
Procedure: FIG. 39: Graph showing NSCLC H1975 cell growth for cells pretreated with 100 nM osimertinib or vehicle and then co-cultured with CER1236 T cells.
CER1236 T cells were tested in combination with EGFR tyrosine kinase inhibitor osimertinib on a non-small cell lung cancer (NSCLC) cell line. Ten-thousand NSCLC H1975 cells were cultured for 24 h with 100 nM osimertinib or vehicle (DMSO) and then co-cultured with 2500 CER1236 T cells at an Effector:Target cell ratio of 0.25:1 in the presence or absence of 4.88 nM osimertinib or vehicle. Tumor cell growth was monitored with indicated for 120 h in an Incucyte assay.

Jeko1 TMEM30A−/− cells = conditions: mantle cell lymphoma mouse model
Procedure: Using an engineered TMEM30a phospholipid flippase knockout JeKo-1 lymphoma cell line with constitutive phosphatidylserine exposure (JeKo-1 PS^+), tumor fragment uptake, cytotoxicity, cytokine secretion (GrB, IFN-γ, and TNF-α), and APC-like activity were evaluated in vitro. JeKo-1 PS^+ cells were labeled with the pH-sensitive pHrodo™ dye to quantify the uptake of tumor cells. Chimeric Tim4 receptor-T cells were tested for antigen-display capacity by evaluating autologous HPV E7 TCR T cell activation and proliferation following Chimeric Tim4 receptor-T cell co-culture with JeKo PS+ cells and HPV-derived peptides. Finally, Chimeric Tim4 receptor T cell anti-tumor activity was examined in xenografted MCL models. Statistical analysis was performed using 2-way ANOVA.

## CER-1236: chimeric Tim4 receptor: Tim4 binding domain-CD28tm-CD28-CD3z-TLR2 TIR, SEQ ID NO:19; tested as transduced T cells
NSCLC H1975 cells [1]; 120 hours, 4:1 effector:target ratio, flow cytometry
  CD3+ T cell proliferation and H1975 cell numbers, osimertinib-treated H1975: CD3+ T cell proliferation was highest and H1975 cell numbers lowest
NSCLC H1975 cells [1]; E:T 1:4, 48, 96, 120, 144 hrs
  total CD3+ T cells fold expansion, combination with osimertinib: osimertinib drives CER1236 T cell proliferation
E7 TCR T cells; 24 hrs following co-culture, controls 23.1%
  E7 TCR-T cell surface activation markers CD25 and CD69 upregulated: 41.2%
E7 TCR T cells; by 6 days, controls 8%
  percentage of dividing E7-TCR-T cells: 44%
NSCLC H1975 cells [2]
  H1975 tumor cell growth, combination with osimertinib: synergizes to inhibit H1975 NSCLC cells in vitro
Jeko1 TMEM30A−/− cells
  anti-tumor effect / tumor burden: showed anti-tumor effect
